Results: patent US20100256153A1, “METHODS FOR PREVENTING OR REDUCING RISK OF MORTALITY” (priority 2009, published 2010)

What was measured:
[1] = system: subjects of pooled studies; experiment: Ischemic serious adverse events (heart or brain related) in pooled studies, Fischer Exact Test analysis (FIG. 12); type: in vivo, human; conditions: FIG. 12, per 100 comparator
non-diabetic mice = experiment: Two year survival of non-diabetic mice (FIGS. 9-10); type: in vivo, mouse; conditions: 50 mg/kg/day, two years
Source text: (§1) In these studies, approximately sixty animals of each gender were exposed to saxagliptin or two cohorts of placebo over two years, the approximate lifetime of a rodent. […] The differences in survival time between male and female rodents are not currently explained. A possible explanation for the rat results is that the dose taken by male rats, 45 times the human equivalent dose, was closer to the human experience than the same dose taken by female rats, 112 times the human equivalent dose, and therefore the male experience may be more relevant.

[2] = system: Phase 2b/3 pooled population; experiment: Pooled analysis of cardiovascular events and death in the Phase 2b/3 clinical studies; type: in vivo, human; conditions: for CEC-CV death/MI/stroke: CEC-adjudicated; for All MI / All stroke: fatal and/or non-fatal
Procedure: The mortality and adverse CV event data shown in the Tables and Figures herein were analyzed from the Phase 2b and Phase 3 studies (Phase 2b/3).
Mortality incidences caused by stroke, heart attack, heart failure, or blood vessel problems not associated with the heart or brain, were defined as CV death. Death by any means, including CV death, was defined as All-cause Mortality or All-cause death.
Acute CV events, as defined herein, includes all cardiovascular disorders associated with Phase 2b/3 subjects that were diagnosed by a medical physician during the studies as acute and clinically significant including MACE events and also procedures (for example, cardiac bypass surgery) and severe ischemic event such as unstable angina. Primary MACE means non-fatal myocardial infarction (MI), non-fatal stroke, and CV death. Secondary MACE accounts for All-cause deaths (death by any means) in addition to non-fatal MI, non-fatal stroke, and CV death.
First, two physicians at the Clinical Event Center (CEC) of the Duke Clinical Research Institute (Durham, N.C.) served as consultants to the sponsor and performed a retrospective treatment-blinded independent adjudication of all identified potential CV events. […] Adjudication was based on definitions typical for such review and prespecified by the reviewers.

subjects = experiment: Phase 1-3 clinical development, tolerability; type: in vivo, human
non-diabetic rats = experiment: Two year survival of non-diabetic rats (FIGS. 7-8); type: in vivo, rat; conditions: 25 mg/kg/day, two years
Source text: as §1

[3] = system: subjects administered sitagliptin or metformin; experiment: Health insurance data analysis of heart attack, sitagliptin relative to metformin (FIG. 13); type: in vivo, human; conditions: propensity adjusted, 27,424 sitagliptin vs 80,462 metformin subjects
[4] = All Saxa (2.5, 5, 10, 20, 40, 100 mg/d), N = 3356
[5] = CEC adjudication, all saxagliptin

Q: Which “ischemic SAEs (heart attack or stroke-like events causing death, hospitalization, or near hospitalization), subjects on drug when 100 subjects on comparator had events” value [1] does the source give for `N#C[C@@H]1CCCN1C(=O)CNC12CC3CC(CC(O)(C3)C1)C2` [vildagliptin, reference compound] here?
A: 70 subjects

Q: Which survival versus placebo (non-diabetic mice; female mice, FIG. 9) does the source give for `N#C[C@@H]1C[C@@H]2C[C@@H]2N1C(=O)[C@@H](N)C12CC3CC(CC(O)(C3)C1)C2` [saxagliptin, (1S,3S,5S)-2-[(2S)-2-amino-2-(3-hydroxyadamantan-1-yl)acetyl]-2-azabicyclo[3.1.0]hexane-3-carbonitrile] here?
A: reduced risk of mortality

Q: What about the survival versus placebo (non-diabetic mice; male mice, FIG. 10) of the same molecule?
A: intermediate between the two placebo cohorts

Q: What about the “subjects having a Primary MACE (CV death/MI/stroke)” value ([2]; ALL SAXA group) of the same molecule?
A: 0.7%

Q: And the “Inv-CV death/MI/stroke” value [2, 4]?
A: 23 (0.7) n (%)

Q: And the “CEC-CV death/MI/stroke” value [2, 4]?
A: 22 (0.7) n (%)

Q: What about the All death ([2]; All Saxa, N = 3356) of the same molecule?
A: 10 (0.3) n (%)

Q: What about the “Other CV death” value ([2]; All Saxa, N = 3356) of the same molecule?
A: 4 (0.1) n (%)

Q: What about the “All MI” value ([2]; All Saxa, N = 3356) of the same molecule?
A: 8 (0.2) n (%)

Q: And the All stroke ([2]; All Saxa, N = 3356)?
A: 11 (0.3) n (%)

Q: What about the “All Stroke (fatal and non-fatal), proportion of subjects with events” value [2, 5] of the same molecule?
A: 0.3%

Q: What about the “Other CV death, proportion of subjects with events” value [2, 5] of the same molecule?
A: 0.1%

Q: And the “all MI, proportion of subjects with events” value [2, 5]?
A: 0.2%

Q: What about the “Acute CV Events, Incidence rate ± SE” value ([2]; Phase 2/3 Pooled Population) of the same molecule?
A: 10.7 ± 1.8 events/1000 patient-years

Q: What about the “Primary MACE, Incidence rate ± SE” value ([2]; Phase 2/3 Pooled Population) of the same molecule?
A: 6.2 ± 1.3 events/1000 patient-years

Q: What about the “Secondary MACE, Incidence rate ± SE” value ([2]; Phase 2/3 Pooled Population) of the same molecule?
A: 7.0 ± 1.4 events/1000 patient-years

Q: And the All death ([2]; Saxa 2.5 mg, N = 937)?
A: 3 (0.3) n (%)

Q: And the “Inv-CV death/MI/stroke” value ([2]; Saxa 2.5 mg, N = 937)?
A: 6 (0.6) n (%)

Q: And the “Other CV death” value ([2]; Saxa 2.5 mg, N = 937)?
A: 0 n (%)

Q: What about the “CEC-CV death/MI/stroke” value ([2]; Saxa 2.5 mg, N = 937) of the same molecule?
A: 6 (0.6) n (%)

Q: And the “All MI” value ([2]; Saxa 2.5 mg, N = 937)?
A: 2 (0.2) n (%)

Q: What about the All stroke ([2]; Saxa 2.5 mg, N = 937) of the same molecule?
A: 4 (0.4) n (%)

Q: And the All death ([2]; Saxa 5 mg, N = 1269)?
A: 3 (0.2) n (%)

Q: And the “Inv-CV death/MI/stroke” value ([2]; Saxa 5 mg, N = 1269)?
A: 6 (0.5) n (%)

Q: What about the “Other CV death” value ([2]; Saxa 5 mg, N = 1269) of the same molecule?
A: 0 n (%)

Q: And the “CEC-CV death/MI/stroke” value ([2]; Saxa 5 mg, N = 1269)?
A: 7 (0.6) n (%)

Q: What about the “All MI” value ([2]; Saxa 5 mg, N = 1269) of the same molecule?
A: 4 (0.3) n (%)

Q: And the All stroke ([2]; Saxa 5 mg, N = 1269)?
A: 4 (0.3) n (%)

Q: What about the All death ([2]; Saxa 10 mg, N = 1000) of the same molecule?
A: 4 (0.4) n (%)

Q: What about the “Inv-CV death/MI/stroke” value ([2]; Saxa 10 mg, N = 1000) of the same molecule?
A: 11 (1.1) n (%)

Q: What about the “Other CV death” value ([2]; Saxa 10 mg, N = 1000) of the same molecule?
A: 4 (0.4) n (%)

Q: And the “CEC-CV death/MI/stroke” value ([2]; Saxa 10 mg, N = 1000)?
A: 9 (0.9) n (%)

Q: And the “All MI” value ([2]; Saxa 10 mg, N = 1000)?
A: 2 (0.2) n (%)

Q: And the All stroke ([2]; Saxa 10 mg, N = 1000)?
A: 3 (0.3) n (%)

Q: What about the “Proportion of subjects with SAE CHF events” value ([2]; all saxagliptin) of the same molecule?
A: 0.2%

Q: What about the “overall frequency of CV deaths” value ([2]; all subjects treated with saxagliptin (7/3356)) of the same molecule?
A: 0.2%

Q: And the “all cause mortality (death by any means), frequency” value ([2]; all subjects treated with saxagliptin (10/3356))?
A: 0.3%

Q: What about the “incidence of MACE events in higher risk subgroups versus control” value ([2]; at least one or two CV risk factors in addition to T2DM, history of hypertension or hypercholesterolemia, males, FIGS. 3, 4) of the same molecule?
A: lowered incidence MACE events

Q: What about the “MACE events incidence rate” value ([2]; subjects with a history of CV disease, FIG. 3) of the same molecule?
A: 9.2 MACE events per 1000 patient-years

Q: What about the “fatal CHF events” value ([2]; two fatal events in total, both on comparator) of the same molecule?
A: none

Q: And the “ischemic SAEs (heart attack or stroke-like events causing death, hospitalization, or near hospitalization), subjects on drug when 100 subjects on comparator had events” value [1]?
A: 57 subjects

Q: And the “adverse CV effects related to blood pressure or heart rate” value (subjects; Phase 1-3 studies overall)?
A: did not lead to adverse CV effects

Q: What about the tolerability (subjects; maximum oral daily doses 400 mg up to 2 weeks, 100 mg up to 6 weeks, 40 and 20 mg up to 12 weeks, 2.5, 5, 10 mg up to 2 years) of the same molecule?
A: well tolerated

Q: And the survival versus placebo (non-diabetic rats; female rats, FIG. 8)?
A: intermediate between the two placebo cohorts

Q: And the survival versus placebo (non-diabetic rats; male rats, FIG. 7)?
A: reduced risk of mortality or longer survival times

Q: How did the “heart attack, subjects on sitagliptin in the time 100 subjects have a heart attack on metformin” value [3] turn out when `N[C@@H](CC(=O)N1CCn2c(nnc2C(F)(F)F)C1)Cc1cc(F)c(F)cc1F` [sitagliptin] was run?
A: 65 subjects
